According to the CheMixHub ionic liquid set:
± gives the uncertainty stated by the source.

Assay: xn = mol fraction of the nth substance listed

CO + CC[n+]1ccn(C)c1.F[B-](F)(F)F
101 kPa, x2 = 0
Conditions	viscosity [mPa·s]
303.15 K	0.504 ± 0.051
313.15 K	0.442 ± 0.044
323.15 K	0.39 ± 0.039
333.15 K	0.344 ± 0.034

CC[S+](CC)CCOCCOCCOCCOCC[S+](CC)CC.O=S(=O)([N-]S(=O)(=O)C(F)(F)F)C(F)(F)F.O=S(=O)([N-]S(=O)(=O)C(F)(F)F)C(F)(F)F + CC[n+]1ccn(C)c1.N#C[N-]C#N + O=S(=O)([N-]S(=O)(=O)C(F)(F)F)C(F)(F)F.[Li+]
100 kPa, x1 = 0.1416, x2 = 0.7549
Conditions	electrical conductivity [S/m]
298 K	0.679 ± 0.027
303 K	0.979 ± 0.039
313 K	1.29 ± 0.052
323 K	1.7 ± 0.068
333 K	2.05 ± 0.082
343 K	2.41 ± 0.096

C[N+]1(CCOCC[N+]2(C)CCCC2)CCCC1.O=S(=O)([N-]S(=O)(=O)C(F)(F)F)C(F)(F)F.O=S(=O)([N-]S(=O)(=O)C(F)(F)F)C(F)(F)F + CC[n+]1ccn(C)c1.N#C[N-]C#N + O=S(=O)([N-]S(=O)(=O)C(F)(F)F)C(F)(F)F.[Li+]
100 kPa, x1 = 0.1626, x2 = 0.7364
Conditions	electrical conductivity [S/m]
298 K	0.806 ± 0.032
303 K	1.08 ± 0.043
313 K	1.43 ± 0.057
323 K	1.82 ± 0.073
333 K	2.2 ± 0.088
343 K	2.65 ± 0.11

CO + CC[n+]1ccn(C)c1.N#C[S-]
100 kPa, x2 = 0
Conditions	viscosity [mPa·s]
298.15 K	0.54
318.15 K	0.43

CCCC[n+]1ccn(C)c1.CCOS(=O)(=O)[O-] + CC[n+]1ccn(C)c1.O=S(=O)([N-]S(=O)(=O)C(F)(F)F)C(F)(F)F
298.15 K, 100 kPa
Conditions	viscosity [mPa·s]
x2 = 0	255.2 ± 7.6
x2 = 0.5013	87.6 ± 1.5
x2 = 0.7113	57.11 ± 0.83

CC[n+]1ccn(C)c1.F[B-](F)(F)F + CC[n+]1ccn(C)c1.O=S(=O)([N-]S(=O)(=O)C(F)(F)F)C(F)(F)F
100 kPa, x2 = 0
Conditions	electrical conductivity [S/m]	viscosity [mPa·s]
243.15 K	0.026 ± 0.003	–
248.15 K	0.043 ± 0.005	–
253.15 K	0.066 ± 0.007	308 ± 35
258.15 K	0.096 ± 0.01	–
263.15 K	0.135 ± 0.014	152 ± 16
268.15 K	0.184 ± 0.019	–
273.15 K	0.243 ± 0.025	85.2 ± 8.6
278.15 K	0.313 ± 0.032	–
283.15 K	0.395 ± 0.04	52.4 ± 5.2
288.15 K	0.488 ± 0.049	–
293.15 K	0.594 ± 0.06	34.6 ± 3.5
298.15 K	0.712 ± 0.072	–
303.15 K	–	24.2 ± 2.4
313.15 K	–	17.8 ± 1.8
323.15 K	–	13.5 ± 1.4
333.15 K	–	10.6 ± 1.1

CO + CC[n+]1ccn(C)c1.O=S(=O)([N-]S(=O)(=O)C(F)(F)F)C(F)(F)F
100 kPa, x1 = 1
Conditions	viscosity [mPa·s]
298.15 K	0.55 ± 0.2
308.15 K	0.48 ± 0.2
318.15 K	0.43 ± 0.2

Cc1cnc[nH]1 + CC[n+]1ccn(C)c1.[Cl-]
101.33 kPa, x2 = 0.667
Conditions	viscosity [mPa·s]
303.15 K	326 ± 12
313.15 K	151.3 ± 4.8
323.15 K	84.8 ± 2.2
333.15 K	51.8 ± 1.2
343.15 K	32.73 ± 0.76
353.15 K	22.56 ± 0.52

CO + CC[n+]1ccn(C)c1C.F[B-](F)(F)F
Conditions	viscosity [mPa·s]
308.15 K, 101.3 kPa, x2 = 0	0.467 ± 0.044

CC[n+]1ccn(C)c1.F[B-](F)(F)F + CN(C)C=O
101 kPa
Conditions	viscosity [mPa·s]
303.15 K, x2 = 0.2016	16.52 ± 0.25
313.15 K, x2 = 0	20.41 ± 0.33
313.15 K, x2 = 0.3987	7.35 ± 0.1
313.15 K, x2 = 0.5005	5.397 ± 0.075
313.15 K, x2 = 0.7997	1.806 ± 0.024
323.15 K, x2 = 0	15.35 ± 0.25
323.15 K, x2 = 0.2994	7.73 ± 0.11
323.15 K, x2 = 0.5005	4.475 ± 0.062
323.15 K, x2 = 0.6004	3.226 ± 0.044
323.15 K, x2 = 0.8999	1.01 ± 0.013

CC[n+]1ccn(C)c1.COP(=O)([O-])OC + CO
101 kPa
Conditions	viscosity [mPa·s]
298.15 K, x2 = 0.598	20.62 ± 0.24
318.15 K, x2 = 0.799	3.265 ± 0.039
328.15 K, x2 = 0.399	20.82 ± 0.23
333.15 K, x2 = 0.399	18.06 ± 0.18

CC[n+]1ccn(C)c1.F[B-](F)(F)F + CO
viscosity [mPa·s], 101 kPa
Conditions	x1 = 0.0999	x1 = 0.2	x1 = 0.3	x1 = 0.3996	x1 = 0.5005	x1 = 0.5973	x1 = 0.7011	x1 = 0.8013	x1 = 0.8995	x1 = 1
303.15 K	0.945 ± 0.095	1.6 ± 0.16	2.45 ± 0.25	3.62 ± 0.36	5.25 ± 0.53	7.32 ± 0.73	10.4 ± 1	14.5 ± 1.5	20 ± 2	28 ± 2.8
313.15 K	0.822 ± 0.082	1.36 ± 0.14	2.08 ± 0.21	3.03 ± 0.3	4.34 ± 0.44	5.96 ± 0.6	8.24 ± 0.83	11.2 ± 1.1	15.1 ± 1.5	20.4 ± 2.1
323.15 K	0.718 ± 0.072	1.19 ± 0.12	1.79 ± 0.18	2.6 ± 0.26	3.67 ± 0.37	4.96 ± 0.5	6.82 ± 0.68	8.97 ± 0.9	11.7 ± 1.2	15.3 ± 1.5
333.15 K	0.636 ± 0.064	1.06 ± 0.11	1.6 ± 0.16	2.3 ± 0.23	3.24 ± 0.32	4.25 ± 0.43	5.74 ± 0.58	7.47 ± 0.75	9.43 ± 0.95	12.1 ± 1.2

CC[n+]1ccn(C)c1.O=S(=O)([N-]S(=O)(=O)C(F)(F)F)C(F)(F)F + CO
100 kPa
Conditions	viscosity [mPa·s]
298.15 K, x2 = 0.5988	6.44 ± 0.31
308.15 K, x2 = 0.4005	9.17 ± 0.32
308.15 K, x2 = 0.8978	1.32 ± 0.3
313.15 K, x2 = 0.4005	8.11 ± 0.31
313.15 K, x2 = 0.5088	6.09 ± 0.31
313.15 K, x2 = 0.6909	3.44 ± 0.3
318.15 K, x2 = 0.1965	11.67 ± 0.42
323.15 K, x2 = 0.7961	1.82 ± 0.3
